Results published in US12433875B2, “(R)-4-(1-(6-(4-(trifluoromethyl)benzyl)-6-azaspiro[2.5]octane-5-carboxamido)-cyclopropyl) benzoic acid or its salt also in polymorphic form a for use in the prevention of heterotopic ossification” (ROTTAPHARM BIOTECH S.R.L., priority 2019, dated 2025).

Columns and labels:
[1] = system: Male DBA/1 mice (CIA model); test: CIA in mice, histology of heterotopic bone formation; type: in vivo; details: 30 mg/kg (lowest tested dose) once daily for 10 days, FIG. 9
Method: CIA in mice is another very popular translational model to mimic human arthritis. […] Male DBA/1 mice were immunized by intradermal injection at the base of the tail with an emulsion of 200 μg of bCII in CFA containing 3 mg/ml Mycobacterium tuberculosis. Non-immunized mice served as the negative control of disease. Animals were monitored by visual inspection for appearance of peripheral edema. […] Upon onset, animals were recruited and randomized. Recruitment was given a cut-off at day 40. Upon recruitment, arthritis clinical score was assigned, and edema was measured via caliper. Mice were randomized into the following groups: vehicle, 30 mg/kg the form A of the sodium salt of (R)-4-(1-(6-(4-(trifluoromethyl)benzyl)-6-azaspiro[2.5]octane-5-carboxamido)cyclopropyl)benzoic acid, 60 mg/kg the form A of the sodium salt of (R)-4-(1-(6-(4-(trifluoromethyl)benzyl)-6-azaspiro[2.5]octane-5-carboxamido)cyclopropyl)benzoic acid and 60 mg/kg naproxen. Animals received the test drugs once daily for 10 days. Histology was performed as described for rats.

[2] = system: PBMC's from healthy volunteers (Th17 IL-17F memory cells); test: Human T-helper (Th) cell polarization, flow cytometry; type: cell-based; details: 100 nM; rIL-2 and rIL-21 5 ng/ml, anti-CD3 and anti-CD28 1.5 ng/ml, PGE2 30 nM, 48 hour; FIG. 12
Method: FIG. 12a is the spydergram illustrating the preferential inhibitory effect of the form A of the sodium salt of (R)-4-(1-(6-(4-(trifluoromethyl)benzyl)-6-azaspiro[2.5]octane-5-carboxamido)cyclopropyl)benzoic acid on Th17 polarization towards Th17 IL-17F memory cells induced by a stimulation with rIL-2 and rIL-21 (both at 5 ng/ml) in combination with anti-CD3 and anti-CD28 (both at 1.5 ng/ml) co-stimulated with PGE2 (30 nM) over a 48 hour. Stimulated cells were normalized to 100%.
FIG. 12b represents the percent of Th17 IL-17F memory cell stimulation (mean±sem) of cells taken by individual donors vs. their baseline levels in the absence or in the presence of 100 nM form A of the sodium salt of (R)-4-(1-(6-(4-(trifluoromethyl)benzyl)-6-azaspiro[2.5]octane-5-carboxamido)cyclopropyl)benzoic acid.
In this model the ability of the Form A of the sodium salt of (R)-4-(1-(6-(4-(trifluoromethyl)benzyl)-6-azaspiro[2.5]octane-5-carboxamido)cyclopropyl)benzoic acid to interacts with the immunological features able to influence pathological bone formation was studied. Specifically, the effect of the Form A of the sodium salt of (R)-4-(1-(6-(4-(trifluoromethyl)benzyl)-6-azaspiro[2.5]octane-5-carboxamido)cyclopropyl)benzoic acid on the Th-cell polarization in human Tcells stimulated by inflammatory agents was studied. […]

O=C([O-])c1ccc(C2(NC(=O)[C@H]3CC4(CCN3Cc3ccc(C(F)(F)F)cc3)CC4)CC2)cc1.[Na+] [Form A, sodium (R)-4-(1-(6-(4-(trifluoromethyl)benzyl)-6-azaspiro[2.5]octane-5-carboxamido)cyclopropyl)benzoate]
pathological bone formation (histology) [1]: completely abrogated in almost all animals
polarization of Th17 cells towards IL-17F producing population (Th17 IL-17F memory cells) [2]: reduce significantly the polarization of Th17 cells towards a population capable to produce IL-17F
